Assay results as given in patent US11661403B2, “Oxadiazole compounds” (Vivace Therapeutics, Inc., priority 2018, dated 2023).

Test system: 8XTBD luciferase reporter (YAP) in HEK293T cells
Assay: YAP Reporter Assay
Type: cell-based
Details: Homo sapiens, HEK-293T, 24 h, read-out: Firefly Luciferase IC50 (μM)

Work on `O=C1N[C@H](c2nnc(-c3ccccc3Nc3ccc(C(F)(F)F)cc3)o2)CO1` [Compound 78, (S)-4-(5-(2-((4-(trifluoromethyl)phenyl)amino)phenyl)-1,3,4-oxadiazol-2-yl)oxazolidin-2-one] yielded an IC50 of 0.1 to 1 µM.

Same assay, conditions: Homo sapiens, HEK-293T; HEK293T cells stably transfected with 8XTBD luciferase reporter and pRLTK; 24-hr incubation; top concentration 3 μM; read-out: Firefly Luciferase IC50

`CSc1nnc(-c2ccccc2Nc2ccc(C(F)(F)F)cc2)o1` [Compound 72, 2-(5-(methylthio)-1,3,4-oxadiazol-2-yl)-N-(4-(trifluoromethyl)phenyl)aniline] and `CCc1nnc(-c2ccccc2Nc2ccc(C(F)(F)F)cc2)o1` [Compound 90, 2-(5-ethyl-1,3,4-oxadiazol-2-yl)-N-(4-(trifluoromethyl)phenyl)aniline] fall in the same range of IC50: 0.1 to 1 µM for the first, 0.1 to 1 µM for the second.

First: CC(C)(C(=O)O)c1nnc(-c2ccccc2Nc2ccc(C(F)(F)F)cc2)o1 [Compound 103, 2-methyl-2-(5-(2-((4-(trifluoromethyl)phenyl)amino)phenyl)-1,3,4-oxadiazol-2-yl)propanoic Acid]
Second: CC(O)c1nnc(-c2ccccc2Nc2ccc(C(F)(F)F)cc2)o1 (stereo not shown) [Compound 41, 1-(5-(2-((4-(trifluoromethyl)phenyl)amino)phenyl)-1,3,4-oxadiazol-2-yl)ethanol]
The IC50 of the first is higher: 0.1 to 1 µM for the first, less than 0.1 µM for the second.

`Cc1ccc(S(=O)(=O)OC2(c3nnc(-c4ccccc4Nc4ccc(C(F)(F)F)cc4)o3)CC2)cc1` [Compound 53, 1-(5-(2-((4-(trifluoromethyl)phenyl)amino)phenyl)-1,3,4-oxadiazol-2-yl)cyclo propyl 4-methylbenzenesulfonate] and `CN(C)C(=O)C1(c2nnc(-c3ccccc3Nc3ccc(C(F)(F)F)cc3)o2)CC1` [Compound 185, N,N-dimethyl-1-(5-(2-((4-(trifluoromethyl)phenyl)amino)phenyl)-1,3,4-oxadiazol-2-yl)cyclopropane-1-carboxamide] fall in the same range of IC50: 0.1 to 1 µM for the first, 0.1 to 1 µM for the second.

`FC(F)(F)c1ccc(Nc2ccccc2-c2nnc(C3CCNC3)o2)cc1` (stereo not shown) [Compound 175, 2-(5-(pyrrolidin-3-yl)-1,3,4-oxadiazol-2-yl)-N-(4-(trifluoromethyl)phenyl)aniline] and `FC(F)(F)c1ccc(Nc2ccccc2-c2nnc(C3CCCN3)o2)cc1` (stereo not shown) [Compound 169, 2-(5-(pyrrolidin-2-yl)-1,3,4-oxadiazol-2-yl)-N-(4-(trifluoromethyl)phenyl)aniline] fall in the same range of IC50: 0.1 to 1 µM for the first, 0.1 to 1 µM for the second.

`CCOC(=O)Cc1nnc(-c2ccccc2Nc2ccc(C(F)(F)F)cc2)o1` [Compound 1, ethyl 2-(5-(2-((4-(trifluoromethyl)phenyl)amino)phenyl)-1,3,4-oxadiazol-2-yl) acetate] and `CCOC(=O)CN(C)c1nnc(-c2ccccc2Nc2ccc(C(F)(F)F)cc2)o1` [Compound 11, ethyl N-methyl-N-(5-(2-((4-(trifluoromethyl)phenyl)amino)phenyl)-1,3,4-oxadiazol-2-yl)glycinate] fall in the same range of IC50: 0.1 to 1 µM for the first, 0.1 to 1 µM for the second.

`CC1(c2nnc(-c3ccccc3Nc3ccc(C(F)(F)F)cc3)o2)CCO1` (stereo not shown) [Compound 180, 2-(5-(2-methyloxetan-2-yl)-1,3,4-oxadiazol-2-yl)-N-(4-(trifluoromethyl)phenyl)aniline] and `OC1(c2nnc(-c3ccccc3Nc3ccc(C(F)(F)F)cc3)o2)CCOC1` (stereo not shown) [Compound 56, 3-(5-(2-((4-(trifluoromethyl)phenyl)amino)phenyl)-1,3,4-oxadiazol-2-yl)tetra hydrofuran-3-ol] cannot be ordered by IC50: less than 0.1 µM for the first, less than 0.1 µM for the second.

`OC(CF)c1nnc(-c2ccccc2Nc2ccc(C(F)(F)F)cc2)o1` (stereo not shown) [Compound 203, 2-fluoro-1-(5-(2-((4-(trifluoromethyl)phenyl)amino)phenyl)-1,3,4-oxadiazol-2-yl)ethan-1-ol] and `OCC(O)c1nnc(-c2ccccc2Nc2ccc(C(F)(F)F)cc2)o1` (stereo not shown) [Compound 25, 1-[5-[2-[4-(trifluoromethyl)anilino]phenyl]-1,3,4-oxadiazol-2-yl]ethane-1,2-diol] cannot be ordered by IC50: less than 0.1 µM for the first, less than 0.1 µM for the second.

First: CN(CCO)c1nnc(-c2ccccc2Nc2ccc(C(F)(F)F)cc2)o1 [Compound 19, 2-(methyl(5-(2-((4-(trifluoromethyl)phenyl)amino)phenyl)-1,3,4-oxadiazol-2-yl)amino)ethan-1-ol]
Second: CN(C#N)Cc1nnc(-c2ccccc2Nc2ccc(C(F)(F)F)cc2)o1 [Compound 168, N-methyl-N-((5-(2-((4-(trifluoromethyl)phenyl)amino)phenyl)-1,3,4-oxadiazol-2-yl)methyl)cyanamide]
The IC50 of the first is higher: 0.1 to 1 µM for the first, less than 0.1 µM for the second. The second is the more potent here.

`C[C@@]1(c2nnc(-c3ccccc3Nc3ccc(C(F)(F)F)cc3)o2)CCNC1=O` [Compound 75, (S)-3-methyl-3-(5-(2-((4-(trifluoromethyl)phenyl)amino)phenyl)-1,3,4-oxadiazol-2-yl)pyrrolidin-2-one] and `OCC1(c2nnc(-c3ccccc3Nc3ccc(C(F)(F)F)cc3)o2)CC1` [Compound 47, (1-(5-(2-((4-(trifluoromethyl)phenyl)amino)phenyl)-1,3,4-oxadiazol-2-yl)cyclopropyl)methanol] cannot be ordered by IC50: less than 0.1 µM for the first, less than 0.1 µM for the second.

Compared with `C#CCC(O)c1nnc(-c2ccccc2Nc2ccc(C(F)(F)F)cc2)o1` (stereo not shown) [Compound 124, 1-(5-(2-((4-(trifluoromethyl)phenyl)amino)phenyl)-1,3,4-oxadiazol-2-yl)but-3-yn-1-ol], `NC(CO)c1nnc(-c2ccccc2Nc2ccc(C(F)(F)F)cc2)o1` (stereo not shown) [Compound 30, 2-amino-2-(5-(2-((4-(trifluoromethyl)phenyl)amino)phenyl)-1,3,4-oxadiazol-2-yl)ethanol] is higher in IC50: less than 0.1 µM for the first, 0.1 to 1 µM for the second.

First: Cc1ocnc1-c1nnc(-c2ccccc2Nc2ccc(C(F)(F)F)cc2)o1 [Compound 35, 2-(5-(5-methyloxazol-4-yl)-1,3,4-oxadiazol-2-yl)-N-(4-(trifluoromethyl)phenyl) aniline]
Second: N#Cc1nnc(-c2ccccc2Nc2ccc(C(F)(F)F)cc2)o1 [Compound 22, 5-[2-[4-(trifluoromethyl)anilino]phenyl]-1,3,4-oxadiazole-2-carbonitrile]
The IC50 of the first is higher: 0.1 to 1 µM for the first, less than 0.1 µM for the second. The second is the more potent here.

Compared with `CCN(C#N)Cc1nnc(-c2ccccc2Nc2ccc(C(F)(F)F)cc2)o1` [Compound 102, N-ethyl-N-((5-(2-((4-(trifluoromethyl)phenyl)amino)phenyl)-1,3,4-oxadiazol-2-yl)methyl)cyanamide], `CCNCCc1nnc(-c2ccccc2Nc2ccc(C(F)(F)F)cc2)o1` [Compound 94, 2-(5-(2-(ethylamino)ethyl)-1,3,4-oxadiazol-2-yl)-N-(4-(trifluoromethyl)phenyl)aniline] is higher in IC50: less than 0.1 µM for the first, 1 to 5 µM for the second.

`OC1(c2nnc(-c3ccccc3Nc3ccc(C(F)(F)F)cc3)o2)CCCC1` [Compound 52, 1-(5-(2-((4-(trifluoromethyl)phenyl)amino)phenyl)-1,3,4-oxadiazol-2-yl)cyclo pentanol] and `O=C(NCCO)c1nnc(-c2ccccc2Nc2ccc(C(F)(F)F)cc2)o1` [Compound 191, N-(2-hydroxyethyl)-5-(2-((4-(trifluoromethyl)phenyl)amino)phenyl)-1,3,4-oxadiazole-2-carboxamide] cannot be ordered by IC50: less than 0.1 µM for the first, less than 0.1 µM for the second.

Compared with `O=C1NCC(c2nnc(-c3ccccc3Nc3ccc(C(F)(F)F)cc3)o2)O1` (stereo not shown) [Compound 13, 5-(5-(2-((4-(trifluoromethyl)phenyl)amino)phenyl)-1,3,4-oxadiazol-2-yl)oxazolidin-2-one], `O=C1OCC(c2nnc(-c3ccccc3Nc3ccc(C(F)(F)F)cc3)o2)O1` (stereo not shown) [Compound 29, 4-[5-[2-[4-(trifluoromethyl)anilino]phenyl]-1,3,4-oxadiazol-2-yl]-1,3-dioxolan-2-one] is lower in IC50: 0.1 to 1 µM for the first, less than 0.1 µM for the second.

Same assay, conditions: Homo sapiens, HEK-293T; […]; 24-hr incubation; top concentration 3 μM; read-out: Firefly Luciferase IC50

First: OC(c1nnc(-c2ccccc2Nc2ccc(C(F)(F)F)cc2)o1)C1CC1 (stereo not shown) [Compound 49, cyclopropyl(5-(2-((4-(trifluoromethyl)phenyl)amino)phenyl)-1,3,4-oxadiazol-2-yl)methanol]
Second: CS(=O)(=O)Nc1nnc(-c2ccccc2Nc2ccc(C(F)(F)F)cc2)o1 [Compound 38, N-(5-(2-((4-(trifluoromethyl)phenyl)amino)phenyl)-1,3,4-oxadiazol-2-yl)methanesulfonamide]
The IC50 of the first is lower: less than 0.1 µM for the first, 0.1 to 1 µM for the second. The first is the more potent here.
